Read-outs that look alike come from different tables or passages of the source.
Tests used:
OsLsi2 = assay: Expression level of OsLsi2 in rice suspension cells, real-time fluorescence quantitative PCR; format: cell-based, Oryza sativa L. Japonica; details: 24 h with treatment, then 10 μM cadmium and 5 μM arsenic for 24 h, CK 4.91 ± 0.21
Protocol: (§1) Method of culturing rice suspension cells (Oryza sativa L. Japonica): Selecting mature and plump seeds of Japanese rice Nipponbare, and disinfecting them with 70% alcohol by volume or 30% sodium hypochlorite by mass; evenly sowing the seeds with tweezers onto a plate containing a solid medium, and then placing the plate into an incubator to culture in the dark at a culture temperature of 25° C.; after a period of time, removing hypocotyls from the seeds with tweezers, and culturing the hypocotyls in another solid medium to obtain callus; crushing 10 g of the callus, adding it to a triangular flask containing a liquid medium (50 mL), and culturing in a shaker at 28° C. for about one month to obtain rice suspension cells.
(§2) The basic components of the above solid medium and liquid medium are consistent, both being an MS medium. The solid medium was prepared by adding agar to the liquid medium (adding […] of the liquid medium, and then heating, melting, cooling and solidifying to obtain the solid medium). The basic formula was as follows: […]
(§3) In order to study the effect of the ferrous modified selenium sol on the expression level of the cadmium transporter in rice suspension cells, the following treatments were performed on the rice suspension cells: […]

rice suspension cells [1] = assay: Content of cadmium in rice suspension cells; format: cell-based, Oryza sativa L. Japonica; details: for Cd Content: 10 μM cadmium and 5 μM arsenic for 24 h, CK 12.8 ± 0.9; for Cd reduction ratio (inhibition rate of cadmium): compared with the blank control
Protocol: as §1, §2
(§4) Ferrous sulfate, sodium selenite and the ferrous modified selenium sol prepared in Examples 1, 2 and 3 were added to a rice suspension cell system, respectively, so that in the final system the ferrous sulfate solution containing the iron element at a mass-volume ratio of 0.05% (T1), the sodium selenite solution containing the selenium element at a mass-volume ratio of 0.025% (T2), and the ferrous modified selenium sol prepared in Example 1 (T3) were diluted 50 times, the ferrous modified selenium sol prepared in Example 2 was diluted 150 times (T4), and the ferrous modified selenium sol prepared in Example 3 was diluted 100 times (T5). The rice suspension cells without any treatment were used as a control (CK). After 24 h of culture, cadmium and arsenic were added to the culture system, so that the final concentrations of cadmium and arsenic were 10 μM and 5 μM, respectively. With the temperature kept constant at 28° C. in a shaker, the rice cells of each treatment were continuously cultured for 24 h and then collected. RNA was extracted from the rice cells and reversely transcribed, and the expression levels of the genes OsNramp5, OsHMA3, OsLCT1, OsLsi1 and OsLsi2 were detected.
(§5) The rice cells obtained by the above respective treatments were collected and washed centrifugally with ultrapure water, and then the contents of cadmium and arsenic in the cells were measured.

rice suspension cells [2] = assay: Content of arsenic in rice suspension cells; format: cell-based, Oryza sativa L. Japonica; details: for As content: 10 μM cadmium and 5 μM arsenic for 24 h, CK 7.12 ± 0.82; for As reduction ratio (inhibition rate of arsenic): compared with the blank control
Protocol: as §1, §2, §4, §5

OsLsi1 = assay: Expression level of OsLsi1 in rice suspension cells, real-time fluorescence quantitative PCR; format: cell-based, Oryza sativa L. Japonica; details: 24 h with treatment, then 10 μM cadmium and 5 μM arsenic for 24 h, CK 4.74 ± 0.11
Protocol: as §1, §2, §3

OsLCT1 = assay: Expression level of OsLCT1 in rice suspension cells, real-time fluorescence quantitative PCR; format: cell-based, Oryza sativa L. Japonica; details: 24 h with treatment, then 10 μM cadmium and 5 μM arsenic for 24 h, CK 4.62 ± 0.10
Protocol: as §1, §2, §3

rice [3] = format: in vivo, rice variety Huang-Li-Zhan
Description: (§6) The surface soil (0-30 cm) of a rice field polluted by heavy metals located in Boluo Town, Huizhou City, Guangdong Province was collected and analyzed from April to July of 2016. […] The tested rice variety was Huang-Li-Zhan.
(§7) There were the following six treatments in the experiment: (1) Blank control (CK): An equal amount of clear water was sprayed. (2) Treatment 1 (T1): The silica sol foliar barrier (prepared in Example 3) was sprayed once on the leaves at the tillering stage of rice when the foliar barrier was diluted 50 times and sprayed at 100 L/mu. (3) Treatment 2 (T2): The selenium sol foliar barrier (prepared in Example 3) was sprayed twice on the leaves, the first at the tillering stage of rice when the foliar barrier was diluted 100 times and sprayed at 50 L/mu, the second at the heading stage of rice when the foliar barrier was diluted 100 times and sprayed at 150 L/mu. (4) Treatment 3 (T3): The selenium sol foliar barrier (prepared in Example 3) was sprayed three times on the leaves, the first at the tillering stage of rice when the foliar barrier was diluted 100 times and sprayed at 80 L/mu, the second at the heading stage of rice when the foliar barrier was diluted 100 times and sprayed at 120 L/mu, the third at the filling stage of rice when the foliar barrier was diluted 250 times and sprayed at 150 L/mu. (5) Treatment 4 (T4): The ferrous sulfate solution containing the iron element at a mass-volume ratio of 0.1% was sprayed on the leaves at the tillering stage of rice at 100 L/mu. (6) Treatment 5 (T5): The sodium selenite solution containing the selenium element at a mass-volume ratio of 0.05% was sprayed on the leaves at the tillering stage of rice at 100 L/mu.
(§8) It was selected that the above foliar preparations were sprayed at 4-6 pm on a sunny day; when sprayed, the atomized droplets were controlled to be smaller than 1000 microns, and sprayed uniformly on both sides of the rice leaves. Each treatment was repeated four times, randomly arranged. There were totally 36 test plots, each plot having an area of 5×6=30 m^2 to ensure independent drainage and irrigation.

rice [4] = assay: Field test of foliar barriers: content of cadmium in rice; format: in vivo, rice variety Huang-Li-Zhan; details: for content of cadmium in rice decreased by, compared with the control (CK) / content of cadmium in rice: sprayed once at tillering stage at 100 L/mu (T1, T4, T5); for content of cadmium in rice: control 0.308 mg/kg
Description: as §6, §7, §8

OsNramp5 = assay: Expression level of OsNramp5 in rice suspension cells, real-time fluorescence quantitative PCR; format: cell-based, Oryza sativa L. Japonica; details: 24 h with treatment, then 10 μM cadmium and 5 μM arsenic for 24 h, CK 4.84 ± 0.15
Protocol: as §1, §2, §3

OsHMA3 = assay: Expression level of OsHMA3 in rice suspension cells, real-time fluorescence quantitative PCR; format: cell-based, Oryza sativa L. Japonica; details: 24 h with treatment, then 10 μM cadmium and 5 μM arsenic for 24 h, CK 1.47 ± 0.07
Protocol: as §1, §2, §3

rice [5] = assay: Field test of foliar barriers: content of inorganic arsenic in rice; format: in vivo, rice variety Huang-Li-Zhan; details: sprayed once at tillering stage at 100 L/mu (T1, T4, T5); for content of inorganic arsenic in rice: control 0.280 mg/kg
Description: as §6, §7, §8

| SMILES | OsLsi2 expression (OsLsi2) | Cd Content (rice suspension cells [1]) | Cd reduction ratio (inhibition rate of cadmium) (rice suspension cells [1]) | As content (rice suspension cells [2]) | As reduction ratio (inhibition rate of arsenic) (rice suspension cells [2]) | OsLsi1 expression (OsLsi1) | OsLCT1 expression (OsLCT1) | content of cadmium in rice decreased by, compared with the control (CK) (rice [4]) | content of cadmium in rice (rice [4]) | OsNramp5 expression (OsNramp5) | OsHMA3 expression (OsHMA3) | content of inorganic arsenic in rice decreased by, compared with the control (CK) (rice [5]) | content of inorganic arsenic in rice (rice [5]) | other results |
| --- | --- | --- | --- | --- | --- | --- | --- | --- | --- | --- | --- | --- | --- | --- |
| O=S(=O)([O-])[O-].[Fe+2] [ferrous sulfate] | 4.78 ± 0.27 | 8.3 ± 0.6 µg/g | 35.2% | 6.89 ± 0.71 µg/g | 3.2% | 4.15 ± 0.16 | 3.82 ± 0.11 | 18.8% | 0.250 mg/kg | 3.15 ± 0.16 | 2.53 ± 0.12 | 18.7% | 0.255 mg/kg | Dry production per mu (rice [3]; in vivo): 410 kg; Plot average yield (rice [3]; in vivo): 30.04abc kg; Plot yield I (rice [3]; in vivo): 29.4 kg; Plot yield II (rice [3]; in vivo): 30.75 kg; Plot yield III (rice [3]; in vivo): 30.3 kg; Wet production per mu (rice [3]; in vivo): 668 kg; Yield increase ratio (rice [3]; in vivo): 6.4%; Plot yield IV (rice [3]; in vivo, iv): 29.7 kg; cadmium and inorganic arsenic content of the treated rice against the food hygiene standard (rice [4]; sol in regimens T1, T2 and T3, ferrous sulfate T4, sodium selenite T5): still exceeded the food hygiene standard |
| O=[Se](O)O [sodium selenite] | 3.07 ± 0.11 | 9.1 ± 1.2 µg/g | 28.9% | 4.96 ± 0.53 µg/g | 30.3% | 3.11 ± 0.17 | 4.42 ± 0.14 | 10.1% | 0.276 mg/kg | 3.85 ± 0.21 | 2.15 ± 0.14 | 16.8% | 0.232 mg/kg | yield of rice decreased by (rice [3]; field, T5: sprayed once at tillering stage at 100 L/mu, 0.05% Se, compared with CK): 3.8%; Plot average yield (rice [3]; field, sprayed once at tillering stage at 100 L/mu (T1, T4, T5), CK 28.05): 26.95c kg; Dry production per mu (rice [3]; field, sprayed once at tillering stage at 100 L/mu (T1, T4, T5), CK 386): 371 kg; Wet production per mu (rice [3]; field, sprayed once at tillering stage at 100 L/mu (T1, T4, T5), CK 623): 599 kg; Yield increase ratio (rice [3]; field, sprayed once at tillering stage at 100 L/mu (T1, T4, T5), compared with CK): −3.8%; Plot yield II (rice [3]; field, sprayed once at tillering stage at 100 L/mu (T1, T4, T5), plot II, CK 30.15): 27.15 kg; Plot yield III (rice [3]; field, sprayed once at tillering stage at 100 L/mu (T1, T4, T5), plot III, CK 28.95): 29.12 kg; Plot yield IV (rice [3]; field, sprayed once at tillering stage at 100 L/mu (T1, T4, T5), plot IV, CK 24.3): 26.13 kg; Plot yield I (rice [3]; field, sprayed once on leaves at tillering stage at 100 L/mu (T1: sol diluted 50 times; T4: ferrous sulfate 0.1% Fe; T5: sodium selenite 0.05% Se), plot I, 30 m^2, CK 28.65): 25.41 kg |

From US10899631B2, “Ferrous modified selenium sol for inhibiting accumulation of cadmium and arsenic in rice and preparation method and application thereof” (priority 2018, dated 2021)
